# Measured values published in patent US10392378B2, “Derivatives of 5-phenyl- or 5-heteroarylathiazol-2-carboxylic amide useful for the treatment of inter alia cystic fibrosis” (Proteostasis Therapeutics, Inc., priority 2014, dated 2019).
# How the values were obtained:
# ΔF508-CFTR [1] = biological target: T1, ΔF508-CFTR (Homo sapiens, UniProt P13569, DEL508-508); assay: Ussing measurements; format: cell-based; settings: compound at 10 uM and VX-809 at 3 uM; primary hBE cells homozygous ΔF508; 24 hours treatment
# T1 construct: Primary lung epithelial cells homozygous for the Cystic Fibrosis-causing ΔF508 mutation; endogenous in cells; host or cells: primary human bronchial (lung) epithelial cells homozygous for ΔF508, differentiated at air-liquid interface
# Method: As discussed above, Ussing measurements are used to measure CFTR activity. In this method, primary lung epithelial cells (hBEs) homozygous for the Cystic Fibrosis-causing ΔF508 mutation are differentiated for a minimum of 4 weeks in an air-liquid interface on SnapWell filter plates prior to the Ussing measurements. Cells are apically mucus-washed for 30 minutes prior to treatment with compounds. The basolateral media is removed and replaced with media containing the compound of interest diluted to its final concentration from DMSO stocks. Treated cells are incubated at 37° C. and 5% CO2 for 24 hours. At the end of the treatment period, the cells on filters are transferred to the Ussing chamber and equilibrated for 30 minutes. The short-circuit current is measured in voltage clamp-mode (Vhold=0 mV), and the entire assay is conducted at a temperature of 36° C. −36.5° C. Once the voltages stabilized, the chambers are clamped, and data is recorded by pulse readings every 5 seconds. Following baseline current stabilization, the following additions can be applied and the changes in current and resistance of the cells can be monitored: • 1. Benzamil to the apical chamber to inhibit ENaC sodium channel. • 2. Forskolin to both chambers to activate ΔF508-CFTR by phosphorylation. • 3. Genistein to both chambers to potentiate ΔF508-CFTR channel opening. • 4. CFTRinh-172 to the apical chamber to inhibit ΔF508-CFTR Cl-conductance.
# The inhibitable current (that current that is blocked by CFTRinh-172) is measured as the specific activity of the ΔF508-CFTR channel, and increases in response to compound in this activity over that observed in vehicle-treated samples are identified as the correction of ΔF508-CFTR function imparted by the compound tested.
# ΔF508-CFTR [2] = biological target: T1, ΔF508-CFTR; assay: hBE equivalent current (Ieq) assay; format: cell-based; settings: compound at 10 uM and VX-809 at 1 uM; primary hBE cells homozygous ΔF508; 24 hours treatment
# Method: Primary lung epithelial cells homozygous for the Cystic Fibrosis-causing ΔF508 mutation were differentiated for a minimum of 4 weeks in an air-liquid interface on Costar 24 well HTS filter plates prior to the equivalent current (Ieq) measurements. Cells were apically mucus-washed for 30 minutes 24h prior to treatment with compounds. The basolateral media was removed and replaced with media containing the compound of interest diluted to its final concentration from DMSO stocks. Treated cells were incubated at 37° C. and 5% CO2 for 24 hours. At the end of the treatment period, the media was changed to the Ieq experimental solution for 30 minutes before the experiment and plates are maintained in a CO2-free incubator during this period. The plates containing the cells were then placed in pre-warmed heating blocks at 36° C.±0.5 for 15 minutes before measurements are taken. The transepithelial voltage (VT) and conductance (GT) were measured using a custom 24 channel current clamp (TECC-24) with 24 well electrode manifold. The Ieq assay measurements were made following additions with standardized time periods: • 1. The baseline VT and GT values were measured for approximately 20 minutes. • 2. Benzamil was added to block ENaC for 15 minutes. • 3. Forskolin plus VX-770 were added to maximally activate ΔF508-CFTR for 27 minutes. • 4. Bumetanide was added to inhibit the NaK2Cl cotransporter and shut-off secretion of chloride.
# The activity data captured was the area under the curve (AUC) for the traces of the equivalent chloride current. The AUC was collected from the time of the forskolin/VX-770 addition until the inhibition by bumetanide addition. Correction in response to compound treatment was scored as the increase in the AUC for compound-treated samples over that of vehicle-treated samples. (** indicates activity ≥200% of VX-809 (1 uM) with compound at 10 uM and VX-809 at 1 uM; * indicates activity 100-200% of VX-809 (1 uM) with compound at 10 uM and VX-809 at 1 uM. ^##indicates activity ≥200% of VX-809 (3 uM) with compound at 10 uM and VX-809 at 3 uM; ^#indicates activity 100-200% of VX-809 (3 uM) with compound at 10 uM and VX-809 at 3 uM
# T1 sequence (P13569 with tags, fused parts or gaps DEL508-508): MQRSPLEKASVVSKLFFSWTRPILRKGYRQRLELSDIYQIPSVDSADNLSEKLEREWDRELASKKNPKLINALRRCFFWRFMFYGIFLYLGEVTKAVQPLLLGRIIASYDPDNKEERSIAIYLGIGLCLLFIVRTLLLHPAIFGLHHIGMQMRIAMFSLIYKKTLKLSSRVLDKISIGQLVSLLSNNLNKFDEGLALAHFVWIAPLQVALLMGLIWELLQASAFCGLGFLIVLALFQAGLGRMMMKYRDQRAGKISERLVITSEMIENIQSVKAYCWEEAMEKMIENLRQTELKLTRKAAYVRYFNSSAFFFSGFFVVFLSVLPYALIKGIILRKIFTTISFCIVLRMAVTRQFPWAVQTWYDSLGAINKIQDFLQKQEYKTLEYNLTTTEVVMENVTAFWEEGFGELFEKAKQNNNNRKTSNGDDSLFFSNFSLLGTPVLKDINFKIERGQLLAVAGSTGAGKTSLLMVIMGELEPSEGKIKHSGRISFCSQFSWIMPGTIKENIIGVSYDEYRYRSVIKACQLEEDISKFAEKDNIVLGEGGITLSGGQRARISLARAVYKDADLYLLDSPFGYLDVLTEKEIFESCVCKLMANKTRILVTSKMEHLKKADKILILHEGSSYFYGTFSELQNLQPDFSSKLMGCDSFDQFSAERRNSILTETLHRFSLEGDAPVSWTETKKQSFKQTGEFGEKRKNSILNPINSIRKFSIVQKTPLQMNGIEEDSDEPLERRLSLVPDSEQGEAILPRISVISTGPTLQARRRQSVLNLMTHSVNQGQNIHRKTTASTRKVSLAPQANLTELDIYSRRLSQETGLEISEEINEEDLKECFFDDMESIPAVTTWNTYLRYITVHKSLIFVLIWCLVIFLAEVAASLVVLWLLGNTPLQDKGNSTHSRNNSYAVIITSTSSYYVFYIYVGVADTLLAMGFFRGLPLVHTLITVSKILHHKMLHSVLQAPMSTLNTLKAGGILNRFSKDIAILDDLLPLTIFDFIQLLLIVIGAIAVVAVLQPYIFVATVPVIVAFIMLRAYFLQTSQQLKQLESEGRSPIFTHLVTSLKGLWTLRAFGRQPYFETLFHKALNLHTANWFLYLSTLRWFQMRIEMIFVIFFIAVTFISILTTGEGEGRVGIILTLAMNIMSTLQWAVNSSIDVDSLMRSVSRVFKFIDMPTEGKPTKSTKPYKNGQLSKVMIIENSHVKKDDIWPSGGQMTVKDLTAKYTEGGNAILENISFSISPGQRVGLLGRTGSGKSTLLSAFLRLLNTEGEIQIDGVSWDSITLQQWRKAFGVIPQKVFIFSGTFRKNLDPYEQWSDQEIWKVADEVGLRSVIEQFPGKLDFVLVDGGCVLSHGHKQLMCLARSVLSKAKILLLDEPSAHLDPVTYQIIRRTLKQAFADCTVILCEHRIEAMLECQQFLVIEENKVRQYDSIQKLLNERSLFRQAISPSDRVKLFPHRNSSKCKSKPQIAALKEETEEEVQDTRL
smiles,measurement,setting,value
"O=C(NCCc1nnc(CO)o1)c1ncc(-c2ccccc2)s1 [Example 7, N-(2-(5-(hydroxymethyl)-1,3,4-oxadiazol-2-yl)ethyl)-5-phenylthiazole-2-carboxamide]","Ussing (CFTRinh-172 inhibitable current, activity relative to VX-809)",ΔF508-CFTR [1],## (activity ≥200% of VX-809 (3 uM) with compound at 10 uM and VX-809 at 3 uM)
same,"leq (AUC of equivalent chloride current, activity relative to VX-809)",ΔF508-CFTR [2],** (activity ≥200% of VX-809 (1 uM) with compound at 10 uM and VX-809 at 1 uM)
"Cc1nnn(CCNC(=O)c2ncc(-c3ccccc3)s2)c1CO [Example 9, N-(2-(5-(hydroxymethyl)-4-methyl-1H-1,2,3-triazol-1-yl)ethyl)-5-phenylthiazole-2-carboxamide]","leq (AUC of equivalent chloride current, activity relative to VX-809)",ΔF508-CFTR [2],** (activity ≥200% of VX-809 (1 uM) with compound at 10 uM and VX-809 at 1 uM)
"Cn1nccc1CCCNC(=O)c1ncc(-c2ccccc2)s1 [Example 5, N-(3-(1-methyl-1H-pyrazol-5-yl)propyl)-5-phenylthiazole-2-carboxamide]","leq (AUC of equivalent chloride current, activity relative to VX-809)",ΔF508-CFTR [2],* (activity 100-200% of VX-809 (1 uM) with compound at 10 uM and VX-809 at 1 uM)
"O=C(NC1CC(c2nnc(CO)o2)C1)c1ncc(-c2ccccc2)s1 (stereo not drawn) [Example 10, N-cis-3-(5-(hydroxymethyl)-1,3,4-oxadiazol-2-yl)cyclobutyl)-5-phenylthiazole-2-carboxamide]","Ussing (CFTRinh-172 inhibitable current, activity relative to VX-809)",ΔF508-CFTR [1],## (activity ≥200% of VX-809 (3 uM) with compound at 10 uM and VX-809 at 3 uM)
"O=C(NCC1CCCO1)c1ncc(-c2ccccc2)s1 (stereo not drawn) [Example 1, 5-phenyl-N-((tetrahydrofuran-2-yl)methyl)thiazole-2-carboxamide]","leq (AUC of equivalent chloride current, activity relative to VX-809)",ΔF508-CFTR [2],** (activity ≥200% of VX-809 (1 uM) with compound at 10 uM and VX-809 at 1 uM)
"O=C(NCCc1nnc(CO)s1)c1ncc(-c2ccccc2)s1 [Example 6, N-(2-(5-(hydroxymethyl)-1,3,4-thiadiazol-2-yl)ethyl)-5-phenylthiazole-2-carboxamide]","Ussing (CFTRinh-172 inhibitable current, activity relative to VX-809)",ΔF508-CFTR [1],## (activity ≥200% of VX-809 (3 uM) with compound at 10 uM and VX-809 at 3 uM)
same,"leq (AUC of equivalent chloride current, activity relative to VX-809)",ΔF508-CFTR [2],** (activity ≥200% of VX-809 (1 uM) with compound at 10 uM and VX-809 at 1 uM)
"COCCNC(=O)c1ncc(-c2ccccc2)s1 [Example 2, N-(2-methoxyethyl)-5-phenylthiazole-2-carboxamide]","leq (AUC of equivalent chloride current, activity relative to VX-809)",ΔF508-CFTR [2],** (activity ≥200% of VX-809 (1 uM) with compound at 10 uM and VX-809 at 1 uM)
"Cc1c(CO)nnn1CCNC(=O)c1ncc(-c2ccccc2)s1 [Example 8, N-(2-(4-(hydroxymethyl)-5-methyl-1H-1,2,3-triazol-1-yl)ethyl)-5-phenylthiazole-2-carboxamide]","Ussing (CFTRinh-172 inhibitable current, activity relative to VX-809)",ΔF508-CFTR [1],## (activity ≥200% of VX-809 (3 uM) with compound at 10 uM and VX-809 at 3 uM)
same,"leq (AUC of equivalent chloride current, activity relative to VX-809)",ΔF508-CFTR [2],** (activity ≥200% of VX-809 (1 uM) with compound at 10 uM and VX-809 at 1 uM)
"O=C(NC1CC(n2cc(CO)nn2)C1)c1ncc(-c2ccccc2)s1 (stereo not drawn) [Example 12, N-trans-3-(5-(hydroxymethyl)-1H-1,2,3-triazol-1-yl)cyclobutyl)-5-phenylthiazole-2-carboxamide]","Ussing (CFTRinh-172 inhibitable current, activity relative to VX-809)",ΔF508-CFTR [1],## (activity ≥200% of VX-809 (3 uM) with compound at 10 uM and VX-809 at 3 uM)
"O=C(NCCCn1ccnc1)c1ncc(-c2ccccc2)s1 [Example 4, N-(3-(1H-imidazol-1-yl)propyl)-5-phenylthiazole-2-carboxamide]","leq (AUC of equivalent chloride current, activity relative to VX-809)",ΔF508-CFTR [2],** (activity ≥200% of VX-809 (1 uM) with compound at 10 uM and VX-809 at 1 uM)
"O=C(NCCN1CCOCC1)c1ncc(-c2ccccc2)s1 [Example 3, N-(2-morpholinoethyl)-5-phenylthiazole-2-carboxamide]","leq (AUC of equivalent chloride current, activity relative to VX-809)",ΔF508-CFTR [2],** (activity ≥200% of VX-809 (1 uM) with compound at 10 uM and VX-809 at 1 uM)
C[C@@H](O)c1nnc(C2CC(NC(=O)c3ncc(-c4ccccc4)s3)C2)o1 (stereo partly drawn) [Example 11],"Ussing (CFTRinh-172 inhibitable current, activity relative to VX-809)",ΔF508-CFTR [1],## (activity ≥200% of VX-809 (3 uM) with compound at 10 uM and VX-809 at 3 uM)
